The text below walks through data of PMC5833296 (Journal of medicinal chemistry, 2018).

Marks after values point to notes of the source that are not given here.

For series [1] the following is noted: mouse, in vivo.
Series [2] relates to CYP450 enzymes (CYP3A4, CYP2C19, CYP2D6). Put plainly: in vitro. To be noted: human.
A further series relates to AGP. To be noted: pH 7.34.
The subject of the next series is healthy mice. To be noted: mouse, in vivo.
Series [3] concerns BoNT/A holotoxin.
Series [4] concerns the target BoNT/A holotoxin (Clostridium botulinum, UniProt P0DPI1). Put plainly: cell-based.
Another series has as its target HSA (Homo sapiens, UniProt P02768). To be noted: pH 7.34.
For series [5] the following is noted: pH 1.

Chain of HSA (P02768 25-609): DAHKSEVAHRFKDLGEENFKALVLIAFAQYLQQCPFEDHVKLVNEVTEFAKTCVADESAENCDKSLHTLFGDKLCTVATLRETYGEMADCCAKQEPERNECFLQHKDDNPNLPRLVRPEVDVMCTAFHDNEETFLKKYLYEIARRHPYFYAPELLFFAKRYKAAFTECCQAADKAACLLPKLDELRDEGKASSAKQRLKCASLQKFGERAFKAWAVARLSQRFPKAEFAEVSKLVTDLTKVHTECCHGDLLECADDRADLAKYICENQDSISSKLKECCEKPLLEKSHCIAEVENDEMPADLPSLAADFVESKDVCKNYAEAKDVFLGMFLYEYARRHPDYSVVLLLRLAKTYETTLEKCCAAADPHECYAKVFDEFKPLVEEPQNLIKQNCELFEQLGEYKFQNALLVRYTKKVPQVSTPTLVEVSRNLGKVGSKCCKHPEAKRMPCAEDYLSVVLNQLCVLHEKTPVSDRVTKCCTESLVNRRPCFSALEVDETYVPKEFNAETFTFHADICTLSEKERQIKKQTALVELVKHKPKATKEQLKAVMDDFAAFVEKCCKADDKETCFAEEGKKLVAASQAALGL
Chain of BoNT/A holotoxin (Clostridium botulinum, UniProt P0DPI1) (P0DPI1 2-448 limits assumed): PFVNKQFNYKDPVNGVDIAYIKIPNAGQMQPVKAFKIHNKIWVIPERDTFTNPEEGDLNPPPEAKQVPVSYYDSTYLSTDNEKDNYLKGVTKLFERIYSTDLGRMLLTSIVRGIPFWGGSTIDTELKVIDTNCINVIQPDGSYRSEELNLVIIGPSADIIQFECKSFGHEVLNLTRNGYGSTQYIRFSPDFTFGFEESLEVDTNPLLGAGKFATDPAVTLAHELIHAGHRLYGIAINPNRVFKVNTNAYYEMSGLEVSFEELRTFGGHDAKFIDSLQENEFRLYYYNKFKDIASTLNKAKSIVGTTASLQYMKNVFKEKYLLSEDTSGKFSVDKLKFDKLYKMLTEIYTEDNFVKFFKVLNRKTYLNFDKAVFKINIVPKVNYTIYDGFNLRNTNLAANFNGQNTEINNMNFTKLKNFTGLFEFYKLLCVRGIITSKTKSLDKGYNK

Take `CC(=O)O[C@H]1C[C@H]2[C@@H]([C@H](OC(C)=O)C[C@@H]3C[C@H](N)CC[C@@]32C)[C@@H]2CC[C@H]([C@H](C)CCCNCCCCNc3ccnc4cc(Cl)ccc34)[C@@]12C` [Compound 16]: the “time Tc > 3μM” value in series [1] is listed as above 45 min. The molecule further had a 50% inhibitory concentration (IC50) in series [2] of 1 to 10 µM. For the same molecule, in the series on AGP, the “Ksv for AGP” value is “(6.99±0.25)×10^5”. In addition, the “host toxicity, single oral dose” value with healthy mice is on record as “non-toxic”. Moreover, the “Mice alive/Total mice” value with healthy mice (po, 160 mg/kg) is 5/5. Besides, the “toxicity in mES-MNs (GAPDH loading control levels lower)” value with BoNT/A holotoxin [3] was “potential toxicity”. For the same molecule, at BoNT/A holotoxin [4], the “% of full length SNAP-25, mES-MNs pre intoxication” value is recorded as 72; 88%. For the same molecule, the “Ksv for HSA” value on HSA was “(4.56±0.27)×10^4”. The “exp LogD” value in series [5] is 2.55 (pH=1); 2.07 (pH=7.3) ^d.

As usually defined, the IC50 is the concentration that gives 50% inhibition. Higher therefore signals a need for much substance.
